Data on 96 molecules can be found in ChEMBL document CHEMBL3507680, “University of Dundee, Gates Library screen for HepG2 cell viability”.

The data set is described as follows: Human HepG2 cell viability assay in 384 well format. The data set is classed as toxicity, cell-based. Set-up: dose 125 nL, time 70.5 hour; cytotoxicity at 70.5 h: concentration not given beside the values. The conditions noted are these: HepG2 cells, read-out: Inhibition.

As to `CCc1cn[nH]c1C1CCCN(C(=O)c2ncoc2C(C)C)C1` (stereo unspecified), the cytotoxicity at 70.5 h was -2.87%.
As for `COc1ccc(CN2C[C@@H]3CC[C@H](C2)N(S(=O)(=O)C2CC2)C3)cc1`, the cytotoxicity at 70.5 h was -5.41%.
As for `Cc1ccc2oc(=O)n(CC(=O)N3CCC4(CC3)CN(C)C(=O)O4)c2c1`, the cytotoxicity at 70.5 h was determined as 13.2%.
As for `COc1ccc(Cl)cc1S(=O)(=O)N1C[C@@H]2CC[C@H](C1)N(C)C2=O`, the figure is 6.39%; as for `CCCn1nc(C)c(CNC(=O)c2snnc2C)c1C`, -13.1%.
`O=C(O)C1(n2ccc(-c3ccco3)n2)CCN(Cc2ccccn2)CC1`: the cytotoxicity at 70.5 h is -4.75%.
As for `CCC(CC)n1nc(C)cc1NC(=O)C1CCOC1` (stereo unspecified), the figure is -6.47%; as for `COc1ccccc1[C@@H]1CN(Cc2ccc3nsnc3c2)C[C@H]1C(=O)O`, -5.24%.
With `N[C@@H]1c2ccccc2C2(CCN(C(=O)c3ccc(CO)o3)CC2)[C@H]1O` the figure was -5.57%.
Take `Cc1nccn1Cc1nnc(C2CCN(c3ccncc3F)CC2)n1C`: the cytotoxicity at 70.5 h is 17.7%.
In the case of `O=C(O)C(c1ccc2c(c1)OCO2)N1CCCCCC1` (stereo unspecified), the cytotoxicity at 70.5 h is -1.77%.
With `Cc1cc(NCc2cc3n(n2)CCCN(C(=O)C2CCC2)C3)ncn1` the figure was 0.388%; with `CN1CCN(CCCNCc2cc(O)c3cc(F)ccc3n2)CC1`, -4.99%.
For the molecule `COC(=O)CCCn1ccnc1-c1ccc(OC)c(F)c1F`, the cytotoxicity at 70.5 h was 3.06%.
In the case of `CCC(C)N(Cc1ccncc1)C(=O)CCSC` (stereo unspecified), the cytotoxicity at 70.5 h is -10.6%.
As for `Cc1nc2c(C(=O)N[C@H]3C[C@H]4CN(C)CCN4C3)cccc2[nH]1`, the figure is -10.2%; as for `CN(CCCc1nccn1C)C(=O)C1CCN(C(=O)C2CCCC2)CC1`, 4.09%; as for `COc1cc2[nH]c(=O)c(CN3CCCC3C)cc2c(OC)c1OC` (stereo unspecified), -6.4%.
As for `CC(C)c1nccn1Cc1cc(C(=O)NCC(F)(F)F)n[nH]1`, the figure is -9.18%; as for `COc1ccc(OCc2nccc(-c3cc(C(=O)O)ccn3)n2)cc1`, -2.16%; as for `COCCn1c(CN2CCCCO2)cnc1S(=O)(=O)CC1CCCCC1`, -2.46%.
Consider `Cc1cc(C)c2[nH]c(=O)c(CN3CCCC4(C3)CN(C)C(=O)O4)cc2c1` (stereo unspecified), for which the cytotoxicity at 70.5 h was -8.68%.
Turning to `CCC[C@H]1CN(CCS(C)(=O)=O)C[C@@H]1NC(=O)Cn1cc(C)cn1`, the cytotoxicity at 70.5 h was -6.99%.
With `CC(=O)N1C[C@H]2CNC[C@@]2(C(=O)NCCOc2ccccc2F)C1` the figure was 0.818%.
`O=C(CCc1nc2ccccc2[nH]1)NC1CCOC2(CCOCC2)C1` (stereo unspecified): the cytotoxicity at 70.5 h stood at 20.1%.
With `CSc1ncc(C(=O)N2C[C@H]3CC[C@@H]2CN(c2ncccn2)C3)cn1` the figure was 24.3%; with `COc1ccc(C(=O)N2C[C@@H](C(=O)O)[C@H](c3ccccc3)C2)c(C)c1`, 11.5%; with `CCNc1ncc(C)c(-c2cnn(C)c2)n1`, -13.2%.
For `c1ccc(-n2cnnc2CCCN2CCOCC2)cc1`, the cytotoxicity at 70.5 h is -2.59%.
As for `Cc1n[nH]c(C)c1CCCN(C)c1cc(N(C)C)ncn1`, the figure is 6.66%; as for `Cc1csc(N2CCC(CCN3CCCC3=O)CC2)n1`, -14.3%.
As for `Nc1cc(-c2cc(C(=O)O)ccc2Cl)c2cc[nH]c2n1`, the cytotoxicity at 70.5 h was -8.39%.
Turning to `CCOc1ccc(C2CC(=O)NCc3nc(N)sc32)cc1CO` (stereo unspecified), the cytotoxicity at 70.5 h is -6.2%.
With `Cc1cc(C[C@@H]2COC[C@@H]2NC(=O)CN2CCc3ccccc3C2)on1`, the cytotoxicity at 70.5 h stood at 8.76%.
`CCCc1nc(N[C@H]2COC[C@@H]2N2CCCC2)c2cnn(C)c2n1`: the cytotoxicity at 70.5 h is -7.83%.
With `CCOc1cc(Cl)c(CN2CCC3(CCCNC3=O)C2)cc1OC` (stereo unspecified) the figure was -5.69%; with `CCn1c(C2CCN(C(=O)c3ccc4cc[nH]c4c3)CC2)n[nH]c1=O`, 9.25%.
Turning to `Cn1cc(CN2CCCC(CCc3ccc(F)cc3F)C2)cn1` (stereo unspecified), the cytotoxicity at 70.5 h is -3.89%.
As for `O=C(c1ccon1)N1CCc2ncnc(NCc3cccnc3)c2CC1`, the figure is -5.39%.
As for `CCCN1CCN(C(=O)c2cnc(C)nc2)[C@H]2CS(=O)(=O)C[C@H]21`, the figure is -0.0232%; as for `COCCN1CC(=O)N2CC[C@@H](O)C[C@H]2C1=O`, 28.2%; as for `O=C(c1ccoc1)N1CCCN(CC2CCOc3ccccc3C2)CC1` (stereo unspecified), 18.3%.
Take `Cc1n[nH]c(C)c1CN1CC[C@@H]2[C@@H](CCC(=O)N2CCc2c[nH]cn2)C1`: the cytotoxicity at 70.5 h was found to be 1.53%.
On to `CCCc1nnc(N2CCN(Cc3ccccc3OC)CC2)o1`, for which the cytotoxicity at 70.5 h came to 23.6%.
As for `CCCn1cnnc1CNC(=O)CC1C(=O)NCCN1C(C)C` (stereo unspecified), the figure is 10.7%; as for `Cc1nc(CN(CCc2ccccc2)C2CCN(C)CC2)no1`, -10.3%; as for `Cc1n[nH]c(C)c1CNC(=O)c1cn(CCC2CCCCN2)nn1` (stereo unspecified), -1.34%.
With `CC(C)N(C)CCC(=O)N1CCCC(c2ccc(C(=O)O)cc2)C1` (stereo unspecified), the cytotoxicity at 70.5 h is -7.94%.
As for `O=C(O)[C@]12CCCN(Cc3ccccn3)[C@@H]1CCN(c1cnccn1)C2`, the figure is -3.65%; as for `CC(C)Cc1cc(CNC(=O)C2CCCN(C(=O)N(C)C)C2)no1` (stereo unspecified), -2.31%; as for `CCSCC(C)NCc1nn(C)c2ccc(C)cc12` (stereo unspecified), -5.67%.
For the molecule `CN(CCc1ccccn1)[C@@H]1CCN(c2cccc(C#N)n2)C[C@H]1O`, the cytotoxicity at 70.5 h came out at 0.836%.
With `CCc1cc(N[C@@H](CC(C)C)C(N)=O)n2nc(C)c(C)c2n1` the figure was -8.65%; with `COc1cnc(N2CCCC(c3ncc[nH]3)C2)nc1` (stereo unspecified), -3.19%.
In the case of `O=C(CCN1CCOC(C(F)(F)F)C1)NCc1ccccc1Cl` (stereo unspecified), the cytotoxicity at 70.5 h is 15.4%.
On to `Cc1nn(C)c2nc(N3CCCCC3c3nccs3)sc12` (stereo unspecified), for which the cytotoxicity at 70.5 h was 5.1%.
With `COCc1cc(N2CCOC(c3ccc(F)cc3)C2)ncn1` (stereo unspecified) the figure was -14.9%; with `Cc1ccsc1[C@@H]1CCN(C(=O)CCc2nc3ccccc3[nH]2)C[C@H]1O`, 5.42%.
As for `CC(=O)Cc1c(C)nn(-c2cncc(N)c2)c1C`, the cytotoxicity at 70.5 h was -1.56%.
With `CCC(NC(=O)CC1CCN(CC)CC1)c1cn2cccnc2n1` (stereo unspecified) the figure was -5.63%; with `CSCC(=O)N[C@H]1CC[C@H](Nc2nccc(-c3cccnc3)n2)C1`, 16.3%; with `Cn1ccnc1CN1CCC(CCC(=O)Nc2ccccc2Cl)CC1`, -2.64%.
With `Fc1cccc(OC2CCN(CCn3cc4ccccc4n3)CC2)c1`, the cytotoxicity at 70.5 h is -21.6%.
With `N#Cc1cc2c(=O)n(CC(O)Cc3ccccc3)ccc2[nH]c1=O` (stereo unspecified) the figure was -13.6%; with `CCNC(=O)[C@@H]1C[C@@H](n2cc(CC3CCCCC3)nn2)CN1`, -9.79%; with `CN(Cc1ccncn1)C(=O)C1(Oc2ccc(Cl)cc2)CCNCC1`, -4.8%.
With `Cc1cnccc1-n1nc(C(C)C)nc1CCc1cnccn1` the figure was -19.8%; with `COCc1noc(-c2ccc(N3CCCC3c3ccc(F)cc3)nc2)n1` (stereo unspecified), -3.49%.
For the molecule `CC(Cn1cncn1)Nc1ccc(-c2nccn2C)nn1` (stereo unspecified), the cytotoxicity at 70.5 h was -7.86%.
With `CCOc1ccc(C(=O)CCC(=O)N(C)Cc2noc(C)n2)cc1C` the figure was -6.08%; with `CNc1cc(C)nc(N2C[C@H](C3CC3)[C@@H](N)C2)n1`, 6.57%; with `O=C(c1cccnc1N1CCOC(c2ccc(F)cc2)C1)N1CCCC1` (stereo unspecified), -14.7%.
Take `CCC(O)Cn1nc(CCSC)nc1-c1ccc2[nH]ccc2c1` (stereo unspecified): the cytotoxicity at 70.5 h turned out to be 1.48%.
As for `CNC(=O)CN(C)c1nc(-c2ccc(C(N)=O)cc2)nc2c1CCNC2`, the figure is -0.358%.
Regarding `N#Cc1cccnc1Oc1cc(F)c(CN2CCCC2)c(Cl)c1`, the cytotoxicity at 70.5 h was -1.54%.
As for `COCCNc1nc2c(c(NCc3cnc(C)cn3)n1)CCNCC2`, the figure is -4.71%.
As to `CCCC1(CO)CCCN(Cc2ncccn2)C1` (stereo unspecified), the cytotoxicity at 70.5 h is -5.25%.
With `CCCSCC(=O)N1CCN(c2ccc(OC)cc2)CC1C` (stereo unspecified) the figure was -2.57%; with `O=C(c1cc[nH]n1)N1CCc2ncnc(NCc3ccccn3)c2CC1`, -8.31%.
As for `CSCCc1n[nH]c2c1CN(S(=O)(=O)c1cn(C)c(C)n1)CC2`, the figure is -4.85%.
As for `O=C(CCc1ccsc1)N1CCC(n2cc(CO)nn2)CC1`, the figure is -13.1%.
Take `Cn1ccnc1SCCNc1nccc(C(F)(F)F)n1`: the cytotoxicity at 70.5 h turned out to be 16%.
Turning to `Fc1cc(Cl)cnc1N1CCCC(c2nccn2Cc2ccncc2)C1` (stereo unspecified), the cytotoxicity at 70.5 h was -14%.
`c1cnnc(N2CCC(c3nnc(Cn4ccnc4)n3C3CC3)CC2)c1`: the cytotoxicity at 70.5 h is -4.27%.
As for `O=C(COCC1CCCCO1)N1CCN(Cc2ccccc2F)C(=O)C1` (stereo unspecified), the cytotoxicity at 70.5 h was -1.62%.
`CN(CCCC1CCCC1)C(=O)c1cc(CN2CCC(O)CC2)on1`: the cytotoxicity at 70.5 h came out at 10.4%.
As for `COCC1(CNC(=O)[C@@]23CNC[C@@H]2CN(C2CCCC2)C3)CC1`, the figure is -3.2%.
As for `CN(C)CC1(O)CCCN(Cc2ccccc2OCC(=O)N(C)C)C1` (stereo unspecified), the figure is 2.4%.
With `Cc1nc(N2C[C@H]3CC[C@@H](C2)N3)nc2cc(S(C)(=O)=O)ccc12`, the cytotoxicity at 70.5 h was -2.58%.
As for `CCn1nc(C)c(NC(=O)CN2CC[C@H](CO)[C@@H](O)C2)c1C`, the figure is -11.7%.
With `COc1ccc(CCC(=O)N2CCNCC2C(=O)N2CCOCC2)cc1` (stereo unspecified) the figure was -7.95%; with `CNC(=O)C(C)(C)NC(=O)c1cc(COc2cccc(C(C)=O)c2)[nH]n1`, -6.29%.
With `Cc1cccc(OC2CCN(Cc3ncc[nH]3)CC2)c1`, the cytotoxicity at 70.5 h was 15.5%.
For the molecule `Fc1ccccc1C(CNc1ccncn1)N1CCCC1` (stereo unspecified), the cytotoxicity at 70.5 h is -8.28%.
With `Cc1ncsc1CCN(C)Cc1cc2n(n1)CCN(S(C)(=O)=O)C2`, the cytotoxicity at 70.5 h was -6.95%.
`CCc1nc(CN(C)Cc2nc(-c3ccccc3Cl)oc2C)no1`: the cytotoxicity at 70.5 h was -14.3%.
